Assay [1] deals with PC-3. The assay can be described thus: Antiproliferative activity against human PC-3 cells assessed as reduction in cell viability by MTT assay. The assay is classed as functional, cell-based.
The test system of assay [2] is DU-145. The assay can be described thus: Antiproliferative activity against human DU-145 cells assessed as reduction in cell viability by MTT assay. The assay is classed as functional, cell-based. (Tetrazolium dyes change colour on reduction, which living cells bring about.)
For assay [3], the system named is DU-145. The assay can be described thus: Inhibition of epithelial mesenchymal transition in human DU-145 cells assessed as upregulation of E-cadherin protein expression at 20 uM incubated for 48 hrs by Western blot analysis. It is filed as functional, cell-based. (In general: A western blot detects proteins with antibodies after separation by electrophoresis.)
Assay [4] relates to PC-3. Put plainly: Inhibition of epithelial mesenchymal transition in human PC-3 cells assessed as upregulation of E-cadherin protein expression at 20 uM incubated for 48 hrs by Western blot analysis. It is filed as functional, cell-based.
The subject of assay [5] is DU-145. Put plainly: Inhibition of epithelial mesenchymal transition in human DU-145 cells assessed as downregulation of Vimentin protein expression at 20 uM incubated for 48 hrs by Western blot analysis. The assay is classed as functional, cell-based.
In assay [6] the target is T1, Forkhead box protein C2 (Homo sapiens) (UniProt Q99958).
T1 sequence (whole entry): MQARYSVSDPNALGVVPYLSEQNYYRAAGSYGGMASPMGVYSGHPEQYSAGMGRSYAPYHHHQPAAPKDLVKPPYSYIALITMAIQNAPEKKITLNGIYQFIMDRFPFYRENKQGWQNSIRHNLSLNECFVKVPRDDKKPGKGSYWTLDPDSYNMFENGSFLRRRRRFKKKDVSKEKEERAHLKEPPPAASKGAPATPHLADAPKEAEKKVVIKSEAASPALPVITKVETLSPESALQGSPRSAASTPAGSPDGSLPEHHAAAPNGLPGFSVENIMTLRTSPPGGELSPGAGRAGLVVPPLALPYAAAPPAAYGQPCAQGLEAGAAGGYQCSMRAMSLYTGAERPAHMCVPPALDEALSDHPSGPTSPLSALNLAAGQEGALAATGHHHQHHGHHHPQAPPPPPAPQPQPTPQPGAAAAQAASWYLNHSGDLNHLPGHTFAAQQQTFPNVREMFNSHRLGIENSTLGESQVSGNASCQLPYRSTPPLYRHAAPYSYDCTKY
Put plainly: Induction of FOXC2 degradation in human DU-145 cells assessed as decrease in FOXC2 protein level at 20 uM incubated for 48 hrs by Western blot analysis. The assay is classed as cell-based.

Assay [7] relates to PC-3. The assay can be described thus: Inhibition of epithelial mesenchymal transition in human PC-3 cells assessed as upregulation of ZO-1 protein expression at 20 uM incubated for 48 hrs by Western blot analysis. It is filed as functional, cell-based.
Assay [8] concerns PC-3. Put plainly: Inhibition of epithelial mesenchymal transition in human PC-3 cells assessed as downregulation of Slug protein expression at 20 uM incubated for 48 hrs by Western blot analysis. It is filed as functional, cell-based.
Assay [9] concerns PC-3. Put plainly: Inhibition of epithelial mesenchymal transition in human PC-3 cells assessed as downregulation of N-cadherin protein expression at 20 uM incubated for 48 hrs by Western blot analysis. The assay is classed as functional, cell-based.
For assay [10], the system named is DU-145. Put plainly: Inhibition of epithelial mesenchymal transition in human DU-145 cells assessed as downregulation of N-cadherin protein expression at 20 uM incubated for 48 hrs by Western blot analysis. The assay is classed as functional, cell-based.
For assay [11], the system named is DU-145. The assay can be described thus: Inhibition of cancer stem cell activity in human DU-145 cells assessed as decrease in Nanog protein expression at 20 uM incubated for 48 hrs by Western blot analysis. The assay is classed as functional, cell-based.
The subject of assay [12] is DU-145. The assay can be described thus: Synergistic antiproliferative activity against human DU-145 cells assessed as reduction in cell viability incubated for 24 hrs in the presence of docetaxel by MTT assay. It is filed as functional, cell-based.
The subject of assay [13] is DU-145. The assay can be described thus: Inhibition of epithelial mesenchymal transition in human DU-145 cells assessed as downregulation of ZEBI protein expression at 20 uM incubated for 48 hrs by Western blot analysis. It is filed as functional, cell-based.
Assay [14] concerns DU-145. The assay can be described thus: Synergistic antiproliferative activity against human DU-145 cells assessed as combination index incubated for 24 hrs in the presence of enzalutamide by MTT assay. It is filed as functional.
Assay [15] relates to DU-145. The assay can be described thus: Inhibition of epithelial mesenchymal transition in human DU-145 cells assessed as upregulation of ZO-1 protein expression at 20 uM incubated for 48 hrs by Western blot analysis. It is filed as functional, cell-based.
Assay [16] concerns PC-3. The assay can be described thus: Inhibition of epithelial mesenchymal transition in human PC-3 cells assessed as downregulation of ZEBI protein expression at 20 uM incubated for 48 hrs by Western blot analysis. It is filed as functional, cell-based.
The test system of assay [17] is DU-145. The assay can be described thus: Antimetastatic activity in human DU-145 cells assessed as inhibition of cell invasion at 20 uM incubated for 24 hrs by transwell invasion assay. It is filed as functional, cell-based.
In assay [18] the test system is PC-3. The assay can be described thus: Inhibition of epithelial mesenchymal transition in human PC-3 cells assessed as downregulation of Vimentin protein expression at 20 uM incubated for 48 hrs by Western blot analysis. It is filed as functional, cell-based.
Assay [19] concerns DU-145. The assay can be described thus: Effect on FOXC2 gene expression level in human DU-145 cells. It is filed as functional, cell-based.
Assay [20] has as its system PC-3. The assay can be described thus: Inhibition of cancer stem cell activity in human PC-3 cells assessed as decrease in Nanog protein expression at 20 uM incubated for 48 hrs by Western blot analysis. It is filed as functional, cell-based.
Assay [21] concerns PC-3. Put plainly: Synergistic antiproliferative activity against human PC-3 cells assessed as combination index incubated for 24 hrs in the presence of enzalutamide by MTT assay. It is filed as functional.
In assay [22] the test system is DU-145. The assay can be described thus: Inhibition of cancer stem cell activity in human DU-145 cells assessed as decrease in C-myc protein expression at 20 uM incubated for 48 hrs by Western blot analysis. The assay is classed as functional, cell-based.
In assay [23] the target is T1, Forkhead box protein C2 (Homo sapiens). The assay can be described thus: Induction of FOXC2 degradation in human PC-3 cells assessed as decrease in FOXC2 protein level at 20 uM incubated for 48 hrs by Western blot analysis. It is filed as cell-based.
The test system of assay [24] is LNCaP. Put plainly: Synergistic antiproliferative activity against human LNCaP cells assessed as inhibition of cell growth in presence of docetaxel by MTT assay. It is filed as functional, cell-based.
The subject of assay [25] is PC-3. The assay can be described thus: Antimetastatic activity in human PC-3 cells assessed as inhibition of cell invasion at 20 uM incubated for 24 hrs by transwell invasion assay. It is filed as functional, cell-based.
The test system of assay [26] is LNCaP. Put plainly: Antimetastatic activity in human LNCaP cells assessed as inhibition of cell invasion by measuring change in number of invading cells by transwell invasion assay. It is filed as functional, cell-based.
Assay [27] relates to PC-3. The assay can be described thus: Inhibition of cancer stem cell activity in human PC-3 cells assessed as decrease in KLF4 protein expression at 20 uM incubated for 48 hrs by Western blot analysis. The assay is classed as functional, cell-based.
The test system of assay [28] is PC-3. Put plainly: Synergistic antiproliferative activity against human PC-3 cells assessed as reduction in cell viability incubated for 24 hrs in the presence of docetaxel by MTT assay. The assay is classed as functional, cell-based.
The test system of assay [29] is PC-3. Put plainly: Inhibition of cancer stem cell activity in human PC-3 cells assessed as decrease in C-myc protein expression at 20 uM incubated for 48 hrs by Western blot analysis. The assay is classed as functional, cell-based.
Assay [30] concerns DU-145. Put plainly: Inhibition of epithelial mesenchymal transition in human DU-145 cells assessed as downregulation of Slug protein expression at 20 uM incubated for 48 hrs by Western blot analysis. It is filed as functional, cell-based.
Assay [31] concerns PC-3. Put plainly: Effect on FOXC2 gene expression level in human PC-3 cells. The assay is classed as functional, cell-based.
The subject of assay [32] is DU-145. Put plainly: Inhibition of cancer stem cell activity in human DU-145 cells assessed as decrease in KLF4 protein expression at 20 uM incubated for 48 hrs by Western blot analysis. It is filed as functional, cell-based.

The source made the active and inactive calls. The rule behind the calls is not given here.

For the compound `CNC(=O)c1ccc(N2C(=S)N(c3ccc(C#N)c(C(F)(F)F)c3)C(=O)C2(C)C)cc1F`, the result in assay [1] and in assay [2] was inactive.
In the case of `CC(=O)O[C@@]12CO[C@@H]1C[C@H](O)[C@@]1(C)C(=O)[C@H](O)C3=C(C)[C@@H](OC(=O)[C@H](O)[C@@H](NC(=O)OC(C)(C)C)c4ccccc4)C[C@@](O)([C@@H](OC(=O)c4ccccc4)[C@H]21)C3(C)C` [DOCETAXEL ANHYDROUS], the EC50 amounted to 0.0076 µM in assay [1] and 0.00605 µM in assay [2].
With `N=C(N)NCCCCNc1nc(Nc2ccc(Oc3ccccc3)cc2)nc(N2CCN(c3nc(N)nc(Nc4ccc(N5CCOCC5)cc4)n3)CC2)n1`, the inhibition entry in [3], in assay [4], in assay [5], in assay [7], in assay [8] and in assay [9] was “Active” each time. In addition, the inhibition entry in assay [10], in assay [11], in assay [13], in assay [15], in [16] and in assay [18] was “Active” in each case. Besides, the inhibition result in assay [20], in [22], in [27], in assay [29], in assay [30] and in assay [32] was “Active” throughout. For the same compound, the EC50 in assay [1] stood at 53.2 µM; in assay [2], 48.1 µM. Besides, the result in assay [6], in [12], in [17], in assay [23], in assay [25] and in assay [28] was Active. Further, the CI in [14] and in assay [21] was >1 throughout. For the same compound, the result in assay [19], in assay [24], in assay [26] and in assay [31] was inactive.

The EC50 is the midpoint of the concentration-response curve.

The values are drawn from ChEMBL document CHEMBL5321252, “A FOXC2 inhibitor, MC-1-F2, as a therapeutic candidate for targeting EMT in castration-resistant prostate cancer” (Bioorg Med Chem Lett, 2023).
